Measured values as given in PMC7069976, “Improved secretion of glycoproteins using an N-glycan-restricted passport sequence tag recognized by cargo receptor” (Nature Communications, 2020).

Legend:
[1] = test system: HCT116 cells (WT); test: EPO secretion level (ELISA) from wild-type HCT116 cells; type: cell-based; settings: for EPO secretion level (Figure 4F): HCT116, alanine substitutions in motif
Text: For expression of the FVIII and FV full-length and deletion mutant proteins in mammalian cells, the codon-optimized FVIII and FV genes were inserted into the p3XFLAG-CMV-14 Expression Vector and p3XFLAG-CMV-9 Expression Vector, respectively (Sigma-Aldrich, St. Louis, MO). For the expression of the wild-type and mutated AAT, EPO, and sFγRIIIa in mammalian cells, the corresponding genes (purchased from FASMAC Co., Ltd., Atsuki, Japan) were inserted into the p3XFLAG-CMV-9 Expression Vector (Sigma-Aldrich).
HCT116 and its mutated cells as well as HEK293T were maintained in Dulbecco’s modified Eagle’s medium (DMEM) supplemented with 10% fetal bovine serum in 5% CO2 at 37 °C. For complementary DNA (cDNA) transfection, cells were grown overnight and transfected using Polyethylenimine “Max” (Polysciences Inc.) as described previously. Expi293F cells (Thermo Fisher Scientific, Waltham, MA) were maintained in Expi293 Expression Medium (Thermo Fisher Scientific) in 5% CO2 at 37 °C on an orbital shaker platform rotating at 125 r.p.m. For cDNA transfection, cells were transfected with the ExpiFectamine 293 Transfection Kit (Thermo Fisher Scientific Inc.). Protein expression was performed in serum-free medium.
The secreted levels of FVIII and FV antigens in the culture medium were determined with an sandwich enzyme-linked immunosorbent assay (ELISA) method using the VisuLize FVIII Antigen Kit (Affinity Biologicals Inc., Ancaster, ON) and the Asssay Max™ Human Factor V ELISA Kit (ASSAYPRO, MO), respectively. The secreted levels of AAT and EPO antigens in the culture medium were determined with an ELASA method using the anti-AAT antibody (Agilent, Santa Clara, CA) and anti-Flag M2 antibody (Sigma-Aldrich), respectively.

[2] = test system: HCT116 cells; test: RUSH imaging of ER-to-Golgi transport; type: cell-based; settings: for colocalized fraction with GM130 (Manders' M1), average: mScarlet-I fusion
Description: For live-cell imaging using RUSH system, li-Str_ST-SBP-mCherry (Plasmid #65269) was purchased from Addgene. We replaced mCherry with mScarlet-I-EPO or mScarlet-I-EPO-motif (SbfI/XbaI). HCT116 cells were plated on 35-mm glass-based dishes, which were coated with poly-L-lysine, and grown overnight. RUSH plasmids to express mScarlet-I-EPO and mScarlet-I-EPO-motif were individually transfected into the cells using Expifectamine^TM 293 reagent. After 24 h, the medium was changed into DMEM including 40 μM (+)-biotin for starting the translocation form ER. […] After blocking with Blocking One solution (Nacalai Tesque), the cells were incubated with polyclonal rabbit anti-GM130 (Proteintech, 11308-1-AP, dilution 1 :1000) and then with Alexa Fluor 488-conjugated anti-rabbit IgG antibody [Jackson ImmunoResearch (West Grove, PA), 711-545-152, dilution 1:1000] in 20 mM Tris-HCl (pH 7.6) containing 150 mM NaCl and 0.05% Tween-20. Cell images were recorded using a fluorescence microscope BZ-X700 and BZ-H3XF/Sectioning Module (Keyence Co., Osaka, Japan) and analyzed by Fiji[31]. For quantification of co-localization of EPO proteins and GM130, the images were thresholded by the Otsu method and analyzed by calculating Manders’ coefficient (M1) with Coloc2 plugin[32]. Because of abnormal distribution of the imaging data based on Shapiro–Wilk normality test, nonparametric statistics were used for the analysis. All statistical analysis was performed in the R statistical environment version 3.5.3[33].

EPO: recombinant Flag-tagged erythropoietin without motif (Fig. 5 prints EPO for mScarlet-I-EPO)
EPO secretion level (Figure 4E), average ([1]; HCT116, N-glycan-deficient mutants, Average, EPO = 1): 1 | EPO secretion level (Figure 4E) ([1]; HCT116, N-glycan-deficient mutants, replicate 1): 1.0366 | EPO secretion level (Figure 4E) ([1]; HCT116, N-glycan-deficient mutants, replicate 2): 1.006 | EPO secretion level (Figure 4E) ([1]; HCT116, N-glycan-deficient mutants, replicate 3): 0.9333 | EPO secretion level (Figure 4E) ([1]; HCT116, N-glycan-deficient mutants, replicate 4): 1.024 | EPO secretion level (Figure 4F), average ([1]; HCT116, alanine substitutions in C-terminal motif, Average, n = 3, EPO = 1): 1 | EPO secretion level (Figure 4F) ([1]; replicate 1): 1.027 | EPO secretion level (Figure 4F) ([1]; replicate 2): 1.0473 | EPO secretion level (Figure 4F) ([1]; replicate 3): 0.9257 | EPO secretion level (Figure 4C), average ([1]; HCT116, motif position series, average, n = 3 independent transfections, Flag-EPO average = 1): 1 | EPO secretion level (Figure 4C) ([1]; HCT116, motif position series, replicate 1): 1.0819 | EPO secretion level (Figure 4C) ([1]; HCT116, motif position series, replicate 2): 0.9754 | EPO secretion level (Figure 4C) ([1]; HCT116, motif position series, replicate 3): 0.9427 | EPO secretion level (Figure 4D), average ([1]; Wild type HCT116, KO series, average, n = 3, EPO in wild type = 1): 1 | EPO secretion level (Figure 4D) ([1]; Wild type HCT116, KO series, replicate 1): 0.9075 | EPO secretion level (Figure 4D) ([1]; Wild type HCT116, KO series, replicate 2): 1.011 | EPO secretion level (Figure 4D) ([1]; Wild type HCT116, KO series, replicate 3): 1.081 | colocalized fraction with GM130 (Manders' M1) ([2]; 0 min, Figure No. 1): 0.028 | colocalized fraction with GM130 (Manders' M1) ([2]; 0 min, Figure No. 2): 0.024 | colocalized fraction with GM130 (Manders' M1) ([2]; 0 min, Figure No. 3): 0.051 | colocalized fraction with GM130 (Manders' M1) ([2]; 0 min, Figure No. 4): 0.098 | colocalized fraction with GM130 (Manders' M1) ([2]; 0 min, Figure No. 5): 0.14 | colocalized fraction with GM130 (Manders' M1) ([2]; 0 min, Figure No. 6): 0.098 | colocalized fraction with GM130 (Manders' M1) ([2]; 0 min, Figure No. 7): 0.128 | colocalized fraction with GM130 (Manders' M1) ([2]; 0 min, Figure No. 8): 0.018 | colocalized fraction with GM130 (Manders' M1) ([2]; 0 min, Figure No. 9): 0.026 | colocalized fraction with GM130 (Manders' M1), average ([2]; 0 min after biotin (40 μM), n = 9 cells): 0.06789 | colocalized fraction with GM130 (Manders' M1) ([2]; 30 min, Figure No. 1): 0.115 | colocalized fraction with GM130 (Manders' M1) ([2]; 30 min, Figure No. 2): 0.302 | colocalized fraction with GM130 (Manders' M1) ([2]; 30 min, Figure No. 3): 0.628 | colocalized fraction with GM130 (Manders' M1) ([2]; 30 min, Figure No. 4): 0.57 | colocalized fraction with GM130 (Manders' M1) ([2]; 30 min, Figure No. 5): 0.472 | colocalized fraction with GM130 (Manders' M1) ([2]; 30 min, Figure No. 6): 0.508 | colocalized fraction with GM130 (Manders' M1) ([2]; 30 min, Figure No. 7): 0.39 | colocalized fraction with GM130 (Manders' M1) ([2]; 30 min, Figure No. 8): 0.267 | colocalized fraction with GM130 (Manders' M1) ([2]; 30 min, Figure No. 9): 0.53 | colocalized fraction with GM130 (Manders' M1) ([2]; 30 min, Figure No. 10): 0.285 | colocalized fraction with GM130 (Manders' M1), average ([2]; 30 min after biotin (40 μM), n = 10 (EPO) or 13 (EPO-motif) cells): 0.4067 | ER-to-Golgi trafficking ([2]; 30 min after biotin addition): localized in the Golgi to varying extents depending on the C-terminal motif | localization in RUSH imaging ([2]; before addition of biotin (time 0)): typical ER localization
